Converted amounts (≈) assume the structure as drawn.
What was measured:
METTL3 = METTL3 (Homo sapiens (Human), UniProt Q86U44); assay: TR-FRET biochemical assay (time resolved-Förster resonance energy transfer); conditions: for LLE (lipophilic ligand efficiency, pIC50-logP): calculated with DataWarrior; for potency reduction / loss: relative to parent compound
Description: The bonds formed are depicted in red. The IC50 values refer to the biochemical assay based on time resolved-Forster resonance energy transfer (TR-FRET). B) Superimposition of compounds 1 (grey, from X-ray with METTL3, PDB code: 7NHI) and 2 (cyan, drawn in Pymol).

[1] = Rat liver microsomes
in vitro = conditions: rat, microsomes
METTL3/METTL14 = METTL3/METTL14 (Homo sapiens (Human), UniProt Q86U44); assay: Protein thermal shift assay, METTL3/METTL14; conditions: read-out: ΔTm
[2] = IC50 data for N6-adenosine-methyltransferase

Chain of METTL3 (Q86U44 whole entry, looked up): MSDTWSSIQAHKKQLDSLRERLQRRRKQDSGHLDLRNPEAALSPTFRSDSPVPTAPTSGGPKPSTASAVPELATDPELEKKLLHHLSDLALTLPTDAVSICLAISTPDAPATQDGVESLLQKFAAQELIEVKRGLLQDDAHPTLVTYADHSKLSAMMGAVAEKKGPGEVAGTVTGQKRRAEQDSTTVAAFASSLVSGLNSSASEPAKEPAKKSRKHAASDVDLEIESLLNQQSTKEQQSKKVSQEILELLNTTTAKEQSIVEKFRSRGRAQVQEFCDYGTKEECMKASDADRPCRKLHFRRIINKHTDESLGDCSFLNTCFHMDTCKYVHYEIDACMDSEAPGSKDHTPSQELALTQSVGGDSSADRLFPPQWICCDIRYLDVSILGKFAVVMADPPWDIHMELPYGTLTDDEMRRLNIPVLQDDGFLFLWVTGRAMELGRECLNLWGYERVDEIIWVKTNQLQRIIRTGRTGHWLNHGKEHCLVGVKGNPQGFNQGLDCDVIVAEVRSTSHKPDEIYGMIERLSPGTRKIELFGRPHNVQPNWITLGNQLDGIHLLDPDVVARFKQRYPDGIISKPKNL
Chain of METTL3 (Q9HCE5 whole entry partner, looked up): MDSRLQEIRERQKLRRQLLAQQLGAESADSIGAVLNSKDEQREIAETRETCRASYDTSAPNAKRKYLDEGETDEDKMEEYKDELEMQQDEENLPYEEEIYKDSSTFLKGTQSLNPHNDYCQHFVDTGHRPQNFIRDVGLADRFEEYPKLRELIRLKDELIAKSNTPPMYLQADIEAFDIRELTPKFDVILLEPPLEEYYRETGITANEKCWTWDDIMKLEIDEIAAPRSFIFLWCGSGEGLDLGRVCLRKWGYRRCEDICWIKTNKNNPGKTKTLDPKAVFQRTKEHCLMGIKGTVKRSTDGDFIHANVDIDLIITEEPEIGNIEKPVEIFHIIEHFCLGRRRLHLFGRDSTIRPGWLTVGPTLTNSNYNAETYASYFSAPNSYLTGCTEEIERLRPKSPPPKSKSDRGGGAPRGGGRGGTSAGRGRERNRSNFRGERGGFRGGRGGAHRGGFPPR
Chain of METTL3/METTL14 (Q86U44 whole entry, looked up): as the sequence (Q86U44 whole entry, looked up) above
Chain of METTL3/METTL14 (Q9HCE5 whole entry partner, looked up): as the sequence (Q9HCE5 whole entry partner, looked up) above

CNc1cc(N2CCCC(O)(CNC(=O)c3ccc(CN4CCC(C)(C)CC4)cc3)C2)ncn1 (stereo not shown) [Compound 1]
LE (ligand efficiency) (METTL3): 0.21 kcal.mol^-1.heavy atom count^-1 | IC50 (METTL3; TR-FRET assay): 8200 nM | LLE (lipophilic ligand efficiency, pIC50-logP) (METTL3): 2.5

CC1(C)CCN(Cc2ccc(C(=O)NC3CCN(c4cc(NCc5ccccc5)ncn4)CC3)cn2)CC1 [Compound 6]
LE (ligand efficiency) (METTL3): 0.20 kcal.mol^-1.heavy atom count^-1 | IC50 (METTL3; TR-FRET assay): 3600 nM | LLE (lipophilic ligand efficiency, pIC50-logP) (METTL3): 1.7

CC1(C)CCN(Cc2ccc(N3CCOC4(CCN(c5cc(NCc6ccccc6)ncn5)CC4)C3)cn2)CC1 [Compound 7, N-Benzyl-6-(4-(6-((4,4-dimethylpiperidin-1-yl)methyl)pyridin-3-yl)-1-oxa-4,9-diazaspiro[5.5]undecan-9-yl)pyrimidin-4-amine]
IC50 (METTL3; [2]): 280 nM | IC50 (METTL3; TR-FRET assay): 280 nM

CC1(C)CCN(Cc2ccc(N3CC(=O)NC4(CCN(c5cc(NCc6ccccc6)ncn5)CC4)C3)cn2)CC1 [Compound 8, 9-(6-(Benzylamino)pyrimidin-4-yl)-4-(6-((4,4-dimethylpiperidin-1-yl)methyl)pyridin-3-yl)-1,4,9-triazaspiro[5.5]undecan-2-one]
IC50 (METTL3; [2]): 37 nM | IC50 (METTL3; TR-FRET assay): 37 nM

CC1(C)CCN(Cc2ccc(N3CC(=O)NC4(CCN(c5cc(NCc6ccccc6)ncn5)CC4)C3)cc2)CC1 [Compound 9, 9-(6-(Benzylamino)pyrimidin-4-yl)-4-(4-((4,4-dimethylpiperidin-1-yl)methyl)phenyl)-1,4,9-triazaspiro[5.5]undecan-2-one]
IC50 (METTL3; [2]): 26 nM | IC50 (METTL3; TR-FRET assay): 26 nM

CNc1cc(N2CC3(CN(c4ccc(CN5CCC(C)(C)CC5)cc4)CC(=O)N3)C2)ncn1 [Compound 11, 8-(4-((4,4-Dimethylpiperidin-1-yl)methyl)phenyl)-2-(6-(methylamino)pyrimidin-4-yl)-2,5,8-triazaspiro[3.5]nonan-6-one]
LE (ligand efficiency) (METTL3): 0.26 kcal.mol^-1.heavy atom count^-1 | IC50 (METTL3; [2]): 440 nM | IC50 (METTL3; TR-FRET assay): 440 nM | LLE (lipophilic ligand efficiency, pIC50-logP) (METTL3): 4.5 | potency reduction / loss (METTL3): 5 fold | RLM t1/2 [1]: 70 min | Kinetic solubility (Kinetic solubility): 86 µM

CNc1cc(N2CCC3(CC2)CN(c2ccc(CN4CCC(C)(C)CC4)cc2)C(=O)N3)ncn1 [Compound 12]
LE (ligand efficiency) (METTL3): 0.23 kcal.mol^-1.heavy atom count^-1 | IC50 (METTL3; TR-FRET assay): 1800 nM | LLE (lipophilic ligand efficiency, pIC50-logP) (METTL3): 2.6 | potency reduction / loss (METTL3): 20 fold

CN(C)c1cc(N2CCC3(CC2)CN(c2ccc(CN4CCC(C)(C)CC4)cc2)CC(=O)N3)ncn1 [Compound 14]
LE (ligand efficiency) (METTL3): 0.23 kcal.mol^-1.heavy atom count^-1 | IC50 (METTL3; TR-FRET assay): 970 nM | LLE (lipophilic ligand efficiency, pIC50-logP) (METTL3): 3.2

CC(C)Nc1cc(N2CCC3(CC2)CN(c2ccc(CN4CCC(C)(C)CC4)cc2)CC(=O)N3)ncn1 [Compound 15, 4-(4-((4,4-Dimethylpiperidin-1-yl)methyl)phenyl)-9-(6-(isopropylamino)pyrimidin-4-yl)-1,4,9-triazaspiro[5.5]undecan-2-one]
LE (ligand efficiency) (METTL3): 0.24 kcal.mol^-1.heavy atom count^-1 | IC50 (METTL3; [2]): 330 nM | IC50 (METTL3; TR-FRET assay): 330 nM | LLE (lipophilic ligand efficiency, pIC50-logP) (METTL3): 3.2

CC1(C)CCN(Cc2ccc(N3CC(=O)NC4(CCN(c5cc(NC6CC6)ncn5)CC4)C3)cc2)CC1 [Compound 16, 9-(6-(Cyclopropylamino)pyrimidin-4-yl)-4-(4-((4,4-dimethylpiperidin-1-yl)methyl)phenyl)-1,4,9-triazaspiro[5.5]undecan-2-one]
IC50 (METTL3; [2]): 84 nM | IC50 (METTL3; TR-FRET assay): 84 nM

CC1(C)CCN(Cc2ccc(N3CC(=O)NC4(CCN(c5ncnc6[nH]ccc56)CC4)C3)cc2)CC1 [Compound 17, 4-(4-((4,4-Dimethylpiperidin-1-yl)methyl)phenyl)-9-(7H-pyrrolo[2,3-d]pyrimidin-4-yl)-1,4,9-triazaspiro[5.5]undecan-2-one]
IC50 (METTL3; [2]): 61 nM | IC50 (METTL3; TR-FRET assay): 61 nM

CC1(C)CCN(Cc2ccc(N3CC(=O)NC4(CCN(c5ccnc6[nH]ccc56)CC4)C3)cc2)CC1 [Compound 18]
LE (ligand efficiency) (METTL3): 0.20 kcal.mol^-1.heavy atom count^-1 | IC50 (METTL3; TR-FRET assay): 4500 nM | LLE (lipophilic ligand efficiency, pIC50-logP) (METTL3): 2.3 | potency reduction / loss (METTL3): 74 fold

CC1(C)CCN(Cc2ccc(N3CC(=O)NC4(CCN(c5nc(Cl)nc6[nH]ccc56)CC4)C3)cc2)CC1 [Compound 19, 9-(2-Chloro-7H-pyrrolo[2,3-d]pyrimidin-4-yl)-4-(4-((4,4-dimethylpiperidin-1-yl)methyl)phenyl)-1,4,9-triazaspiro[5.5]undecan-2-one]
LE (ligand efficiency) (METTL3): 0.28 kcal.mol^-1.heavy atom count^-1 | IC50 (METTL3; [2]): 24 nM | IC50 (METTL3; TR-FRET assay): 24 nM | LLE (lipophilic ligand efficiency, pIC50-logP) (METTL3): 3.9 | RLM t1/2 [1]: 32 min | half-life (in vitro): 32 min | Kinetic solubility (Kinetic solubility): 45 µM | solubility kinetic (Kinetic solubility; kinetic from dmso stock): 45 µM (≈ 23.5 µg/mL)

CNc1cc(N2CCC3(CC2)CN(c2ccc(CN4CCC(C)(C)CC4)cc2F)CC(=O)N3)ncn1 [Compound 20, 4-(4-((4,4-Dimethylpiperidin-1-yl)methyl)-2-fluorophenyl)-9-(6-(methylamino)pyrimidin-4-yl)-1,4,9-triazaspiro[5.5]undecan-2-one]
IC50 (METTL3; [2]): 38 nM | IC50 (METTL3; TR-FRET assay): 38 nM

CNc1cc(N2CCC3(CC2)CN(c2ccc(CN4CCC(C)(C)CC4)c(F)c2)CC(=O)N3)ncn1 [Compound 21, 4-(4-((4,4-Dimethylpiperidin-1-yl)methyl)-3-fluorophenyl)-9-(6-(methylamino)pyrimidin-4-yl)-1,4,9-triazaspiro[5.5]undecan-2-one]
IC50 (METTL3; [2]): 32 nM | IC50 (METTL3; TR-FRET assay): 32 nM

CNc1cc(N2CCC3(CC2)CN(c2cc(F)c(CN4CCC(C)(C)CC4)cc2F)CC(=O)N3)ncn1 [Compound 22, 4-(4-((4,4-Dimethylpiperidin-1-yl)methyl)-2,5-difluorophenyl)-9-(6-(methylamino)pyrimidin-4-yl)-1,4,9-triazaspiro[5.5]undecan-2-one]
ΔTm at 100 µM (METTL3/METTL14): 4.7 °C

Nc1ncnc2c1ncn2[C@@H]1O[C@H](CSCC[C@H](N)C(=O)O)[C@@H](O)[C@H]1O [SAH, S-adenosyl-L-homocysteine, reference compound]
ΔTm at 100 µM (METTL3/METTL14): 2.8 °C

— patent publication US20240139189A1, “N6-ADENOSINE-[…] INHIBITORS IN CANCER TREATMENT” (priority 2021, published 2024)
